According to the CheMixHub viscosity set:

Test: xn = mol fraction of the nth substance listed

O=C(O)C(Cl)(Cl)Cl + CC(C)=O
viscosity [mPa·s], 101 kPa
Conditions | 298.15 K | 308.15 K | 318.15 K
x1 = 0.0484 | 0.368 | – | –
x1 = 0.1316 | 0.4855 | – | –
x1 = 0.165 | – | 0.5039 | 0.453
x1 = 0.2517 | – | 0.6893 | 0.6078
x1 = 0.2543 | 0.8156 | – | –
x1 = 0.3485 | – | 1.01 | 0.8833
x1 = 0.3826 | 1.433 | – | –
x1 = 0.4411 | – | 1.508 | 1.273
x1 = 0.5048 | 2.571 | – | –
x1 = 0.5537 | – | 2.424 | 1.967
x1 = 0.5971 | 3.829 | – | –
x1 = 0.6808 | – | 3.725 | 2.922
x1 = 0.7175 | 5.808 | – | –
x1 = 0.7475 | – | 4.527 | 3.504
x1 = 0.8521 | – | 5.855 | 4.441
x1 = 0.9183 | – | – | 5.024

CCCCN + CC(C)CO
298.15 K, 101.32 kPa
Conditions | viscosity [mPa·s]
x2 = 0.1005 | 0.5513
x2 = 0.2 | 0.6546
x2 = 0.2984 | 0.7783
x2 = 0.3994 | 0.9361
x2 = 0.4997 | 1.135
x2 = 0.5998 | 1.373
x2 = 0.7007 | 1.674
x2 = 0.8122 | 2.126
x2 = 0.8939 | 2.593

CC[N+](=O)[O-] + CC(C)O
viscosity [mPa·s], 101.33 kPa
Conditions | 293.15 K | 303.15 K | 313.15 K
x2 = 0.0501 | 0.68 | 0.605 | 0.536
x2 = 0.1 | 0.672 | 0.595 | 0.53
x2 = 0.15 | 0.671 | 0.592 | 0.526
x2 = 0.2 | 0.678 | 0.594 | 0.526
x2 = 0.25 | 0.698 | 0.601 | 0.53
x2 = 0.3 | 0.707 | 0.613 | 0.538
x2 = 0.35 | 0.729 | 0.628 | 0.546
x2 = 0.4 | 0.766 | 0.647 | 0.559
x2 = 0.4501 | 0.8 | 0.67 | 0.576
x2 = 0.5 | 0.827 | 0.697 | 0.597
x2 = 0.5499 | 0.881 | 0.731 | 0.62
x2 = 0.6001 | 0.932 | 0.777 | 0.648
x2 = 0.65 | 1 | 0.819 | 0.683
x2 = 0.7 | 1.08 | 0.877 | 0.725
x2 = 0.7499 | 1.18 | 0.949 | 0.774
x2 = 0.8 | 1.276 | 1.052 | 0.849
x2 = 0.8499 | 1.467 | 1.154 | 0.915
x2 = 0.9 | 1.681 | 1.305 | 1.021
x2 = 0.95 | 1.983 | 1.507 | 1.16

Cc1ccncc1 + CC(C)O
298.15 K, 101.33 kPa
Conditions | viscosity [mPa·s]
x2 = 0.0886 | 0.8731
x2 = 0.1711 | 0.8916
x2 = 0.2569 | 0.9174
x2 = 0.4424 | 0.9998
x2 = 0.5207 | 1.048
x2 = 0.6685 | 1.181
x2 = 0.8095 | 1.405
x2 = 0.8831 | 1.599

CCCCN + CCC(=O)O
viscosity [mPa·s], 101 kPa
Conditions | x2 = 0.2 | x2 = 0.3 | x2 = 0.4 | x2 = 0.5 | x2 = 0.6 | x2 = 0.7 | x2 = 0.75 | x2 = 0.8 | x2 = 0.875
293.15 K | 1.82 | 15.13 | 63.74 | 0.5662 | 178 | 54.56 | 30.14 | 18.72 | 5.08
298.15 K | 1.75 | 12.72 | 51.68 | 0.4002 | 137.5 | 43.2 | 25.03 | 15.68 | 4.48
303.15 K | 1.63 | 10.92 | 41.89 | – | 107.7 | 35.21 | 20.17 | 13 | 4.05
308.15 K | 1.56 | 9.48 | 34.98 | – | 85.1 | 29.21 | 17.49 | 11.15 | 3.57
313.15 K | 1.44 | 8.34 | 29.06 | 176.5 | 71.2 | 24.51 | 15.02 | – | 3.09
313.5 K | – | – | – | – | – | – | – | 9.51 | –
318.15 K | 1.41 | 7.31 | 24.58 | 136.6 | 57.9 | 20.64 | 12.59 | 8.34 | 2.86
323.15 K | – | 6.66 | 21.02 | 112.7 | 47.7 | 17.83 | 11.15 | 7.33 | 2.73

CCCCN + CCC(C)=O
303.15 K, 101.33 kPa
Conditions | viscosity [mPa·s]
x1 = 0.0943 | 0.482
x1 = 0.181 | 0.593
x1 = 0.2823 | 0.732
x1 = 0.4616 | 0.924
x1 = 0.5768 | 0.967
x1 = 0.674 | 0.914
x1 = 0.7814 | 0.819
x1 = 0.891 | 0.671

CC[N+](=O)[O-] + CCC(C)O
viscosity [mPa·s], 101.33 kPa
Conditions | 293.15 K | 303.15 K | 313.15 K
x2 = 0.05 | 0.679 | 0.605 | 0.543
x2 = 0.1 | 0.68 | 0.601 | 0.538
x2 = 0.15 | 0.684 | 0.604 | 0.536
x2 = 0.2001 | 0.704 | 0.616 | 0.542
x2 = 0.25 | 0.727 | 0.632 | 0.555
x2 = 0.3002 | 0.759 | 0.652 | 0.569
x2 = 0.35 | 0.793 | 0.676 | 0.586
x2 = 0.4 | 0.845 | 0.716 | 0.61
x2 = 0.45 | 0.904 | 0.75 | 0.64
x2 = 0.5 | 0.971 | 0.8 | 0.675
x2 = 0.55 | 1.034 | 0.847 | 0.707
x2 = 0.5999 | 1.123 | 0.909 | 0.75
x2 = 0.6499 | 1.236 | 0.98 | 0.801
x2 = 0.7 | 1.378 | 1.07 | 0.862
x2 = 0.7497 | 1.516 | 1.169 | 0.935
x2 = 0.8 | 1.723 | 1.319 | 1.026
x2 = 0.8499 | 1.983 | 1.484 | 1.144
x2 = 0.8998 | 2.353 | 1.724 | 1.304
x2 = 0.9499 | 2.873 | 2.05 | 1.511

Cc1ccncc1 + CCC(C)O
298.15 K, 101.33 kPa
Conditions | viscosity [mPa·s]
x2 = 0.0808 | 0.8992
x2 = 0.1812 | 0.9547
x2 = 0.2378 | 0.9923
x2 = 0.3187 | 1.047
x2 = 0.3221 | 1.052
x2 = 0.3999 | 1.131
x2 = 0.4574 | 1.186
x2 = 0.5582 | 1.328
x2 = 0.6284 | 1.445
x2 = 0.7034 | 1.608
x2 = 0.8528 | 2.092
x2 = 0.9272 | 2.446
